Patent US20220257523A1, “COMPOSITE DRUG PARTICLES AND USES THEREOF” (The Regents of the University of Michigan, priority 2019, published 2022)

Legend:
[1] = test system: primary subcutaneous human adipocytes; experiment: Adipocyte lysis assay (MTS viability); type: cell-based
Description: The capability of the particle formulation to kill fat cells was tested by incubating them with primary subcutaneous human adipocytes. The primary subcutaneous human adipocytes cultured in 96-well plates were purchased from Zen-Bio (Research Triangle, NC). Upon arrival, 150 μl of the media was removed from each well, and the cells were incubated at 37° C. and 5% CO2. For the lysis assays, 150 μl of the salt solution or particle suspension of the known concentration in FBS free RPMI-medium were incubated for a known time-point. Afterward, the treatment solution was aspirated, the cells were washed with warm PBS, and 150 μl of a 1:25 dilution in 1×PBS of MTS assay cell titer (purchased from Promega Corporation, Madison, Wis.) was added to each well. Plates were incubated at 37° C. and 5% CO2 for 3 hr until the appearance of the orange color in the untreated control wells and the absorbance was measured at 490 nm. The cell viability was quantified via subtracting the background cell titer absorbance from the absorbance of the desired point and dividing it by the average signal of the untreated cells after subtracting the background.

[2] = test system: Human umbilical vein endothelial cells (HUVECs); experiment: HUVEC cell lysis assay (MTS viability)
Description: After the desired time-point, the treatment solution/suspension was removed from the wells, the cells were washed with warm 1X phosphate buffered saline (PBS) and incubated with 1 ml of the 1:25 dilution of MTS assay cell titer (Promega, WI) in 1×PBS at 37° C. and 5% CO2 for 2 hr until the appearance of the orange color in the untreated control wells. The absorbance was then measured at 490 nm, and each condition was repeated in triplicate. The percentage of the cell viability was quantified via subtracting the background cell titer absorbance from the absorbance of the desired point and dividing it by the average signal of the untreated cells after subtracting the background.

[3] = test system: inguinal fat pads of genetically obese mice; experiment: In vivo lipolysis after subcutaneous injection into inguinal fat pad; parameters: species or system mice (B6.Cg-Lep^ob/J)
Description: Animal studies were conducted following the National Institute of Health guidelines for the care and use of laboratory animals and approved by the Institutional Animal Care and Use Committee (IACUC) of the University of Michigan. 8-10 week old female genetically obese (B6.Cg-Lep^ob/J) mice purchased from The Jackson Laboratory were used. The in vivo trials were replicated for 3 animals. All the animals had the same age and the average weight of the animals in each group were matched prior to the initiation of the study.
In vivo lipolysis assays were performed via subcutaneous injection of rhodamine-loaded deoxycholate microparticles into the inguinal fat pads of genetically obese mice alongside the salt solution and vehicle control. Genetically obese mice were anesthetized using isoflurane, shaved, and subcutaneously injected with 100 μL of the suspension of rhodamine-loaded deoxycholate particles or the solution of deoxycholate salt in saline (25 mg/mL) or vehicle control into their right inguinal fat pad. 100 μL of pure saline was injected into the left fat pad of the animals as the control. The weight and appearance of the animals was tracked over the course of two weeks. One group of the animals received a second dosage of particles on Day 7. After 14 days, the animals were euthanized, the right and left fat pad of the animals were removed, weighed, and fixed in 10% formalin solution overnight. Histology slides of the samples were prepared via paraffin embedding and standard hematoxylin and eosin staining. The histology slides were analyzed by blindfolded physicians and the digital scans were analyzed using QuPath software.

| SMILES | cells killed ([1]; 1% solution in RPMI media) | cells killed ([2]; 0.01% solution in media, 1 hr) | cells still alive ([2]; 0.1% salt in 5% BSA, 3 hr) | cell death ([2]; 0.1% salt in media, 3 hr) | cells killed ([2]; 0.2% salt solution in media, 1 hr) | cells lysed ([2]; concentrations higher than 0.2%, 1 hr) | concentration enough to kill the fat cells ([1]; RPMI media, within 1 hr) | time at which an ulcer developed in all of the animals ([3]; 100 μL of 25 mg/mL in saline s.c. into right inguinal fat pad) | skin bruising and inflammation at the injection site ([3]; 100 μL of 25 mg/mL in saline s.c. into right inguinal fat pad, particles rhodamine-loaded, one or two dosages) | local fat loss in the injected fat pad ([3]; at euthanasia 14 days post-injection, right versus left fat pad) | weight of the animals during the lipolytic treatment ([3]; over two weeks) | histology (H&E) of the right fat pad, evidence of fat lysis ([3]; s.c. injection into right inguinal fat pad) |
| --- | --- | --- | --- | --- | --- | --- | --- | --- | --- | --- | --- | --- |
| C[C@H](CCC(=O)[O-])[C@H]1CC[C@H]2[C@@H]3[C@H](O)C[C@@H]4C[C@H](O)CC[C@]4(C)[C@H]3C[C@H](O)[C@]12C.[Na+] [sodium cholate] | all the cells |  |  |  |  |  |  |  |  |  |  |  |
| C[C@H](CCC(=O)[O-])[C@H]1CC[C@H]2[C@@H]3CC[C@@H]4C[C@H](O)CC[C@]4(C)[C@H]3C[C@H](O)[C@]12C.[Na+] [sodium deoxycholate] |  | ~40% | around 25% | nearly all the cells | approximately 95% | all the cells | higher than 0.05% | 7-9 days post-injection | severe bruising and inflammation | visual evidence of local fat loss | No significant change | Crown-like structures and significant leukocyte infiltration |
